US20110207783A1, “RENIN INHIBITORS” (priority 2007, published 2011)
pIC50: −log10 of the molar value.

Assays:
Renin = target: T1, Renin (Homo sapiens, UniProt P00797); experiment: Renin QFRET; assay type: biochemical
T1 sequence (P00797 67-406): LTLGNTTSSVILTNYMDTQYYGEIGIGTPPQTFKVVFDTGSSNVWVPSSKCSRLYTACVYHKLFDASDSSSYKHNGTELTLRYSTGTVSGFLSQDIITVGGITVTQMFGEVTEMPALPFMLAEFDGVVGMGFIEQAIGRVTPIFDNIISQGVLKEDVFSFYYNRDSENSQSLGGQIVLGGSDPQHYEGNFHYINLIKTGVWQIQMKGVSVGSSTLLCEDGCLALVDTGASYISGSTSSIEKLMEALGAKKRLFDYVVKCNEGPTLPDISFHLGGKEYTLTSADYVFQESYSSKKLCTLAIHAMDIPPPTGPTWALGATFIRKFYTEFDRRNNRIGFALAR

renin in human plasma = target: T2, renin in human plasma (Homo sapiens, UniProt P00797); experiment: Inhibition of renin in human plasma; assay type: biochemical
T2 construct: from tissue; host or cells: human plasma from 10 normal donors, spiked with human recombinant renin (3 pM)
T2 sequence (P00797 67-406): T1 sequence (P00797 67-406)
Description: The enzymatic in vitro assay was performed in 384-well polypropylene plates (Nunc). The assay buffer consisted of PBS (Gibco BRL) including 1 mM EDTA and 0.1% BSA. The reaction mixture was composed of 80 μL per well of human plasma, enzyme, Ang I-antibodies mix and 5 μL of renin inhibitors in DMSO. The human plasma mix was premixed at 4° C. and consists of • human plasma from 10 normal donors • human recombinant renin (3 pM) • Ang I-antibodies. The mixtures were then incubated at 37° C. for 2 h.
To determine the enzymatic activity and its inhibition, the accumulated Ang I was detected by an enzyme immunoassay (EIA) in 384-well plates (Nunc). 10 μL of the reaction mixture or standards were transferred to immuno plates which were previously coated with a covalent complex of Ang I and bovine serum albumin (Ang I-BSA). 70 μL assay buffer were added and the plates were incubated at 4° C. overnight. The plates were washed 3 times with PBS including 0.01% Tween 20, and then incubated for 2 h at RT with an anti rabbit-peroxidase coupled antibody (WA 934, Amersham). […]

COCCCc1ccc(Cl)c(CN(C(=O)C(CN)Cc2cccnc2N)C2CC2)c1 (centres unmarked) [Example 5, 3-amino-2-[(2-amino-3-pyridinyl)methyl]-N-({2-chloro-5-[3-(methyloxy)propyl]phenyl}methyl)-N-cyclopropylpropanamide] was tested, and the pIC50 (Renin) was 7.77 and the pIC50 (renin in human plasma) was 6.62.
